Measurements: patent publication US10874685B2, “Pancreatic cancer therapy and diagnosis” (Deutsches Krebsforschungszentrum Stiftung des Öffentlichen …, priority 2014, dated 2020)
Entries after “also recorded” stand apart in the source; their conditions may differ.

Tested on: pancreatic cancer cell lines (PANC-1, CFPAC-1, CAPAN-1, MIAPaCa-2, BXPC-3)
Assay: Sulforhodamine B (SRB) cytotoxicity assay on pancreatic cancer cell lines
Format: cell-based, human
Settings: increasing concentration, 72 h
Protocol: PANC-1, CFPAC-1, CAPAN-1, MIAPaCa-2, BXPC-3 and fibroblast cells were seeded for 24 h and were exposed to increasing concentration of Pimozide and vehicle for 72 h (FIG. 3A). The same procedure was followed for treatment of cancer cell lines with L741 (FIG. 3B). Cell viability was characterized using a SRB assay. Values are the mean+/−SD of six independent experiments.
Five pancreatic ductal cancer cell lines with various degree of differentiation were obtained from American Type Culture Collection (Rockville, USA) and Normal Human Dermal Fibroblasts (NHDF) obtained from PromoCell. BXPC-3 (moderately differentiated) as well as poorly differentiated human pancreatic cancer cell lines, PANC-1 and MIAPaCa-2, have been established from primary tumor. AsPC-1, CAPAN-1 and CFPAC-1 which represent well differentiated cell lines was isolated from ascites and liver metastasis of pancreas adenocarcinoma. All cell lines contain mutation in P53 whereas K-ras mutation reported in all with the exception of BxPc3. BRCA2 mutation just reported in CAPAN-1 cells.
Sulforhodamine B sodium salt (sigma) was used to assess cell viability and IC50 determination of pancreatic cancer cells. […] Cell viability was specified by using plate reader (TECAN) with measuring of absorbance at 570 and 650 nm (background) in treated or untreated 96 well plate.

## O=c1[nH]c2ccccc2n1C1CCN(CCCC(c2ccc(F)cc2)c2ccc(F)cc2)CC1 [pimozide]
  cell viability of pancreatic cancer cell lines: Potent toxicity effect; also recorded: dose dependent toxicity effect
